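How tested: cells in 96-well plates exposed to compound for 48 hours at five concentrations. GI50: concentration for 50% inhibition of growth.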 Activity calls are given as the source filed them. Cut-off read from the data, not from the text of the source: active = GI50 up to about 1.1 µM and inactive = higher. Square brackets hold non-standard residues; d marks the D form. Peptide text beside a SMILES is read from it. * marks the point of attachment. Bn2Val = CC(C)[C@@H](C(=O)*)N(Cc1ccccc1)Cc1ccccc1; NH(3,4-diMeO-benzyl) = COc1ccc(CN*)cc1OC; NMeV = CN[C@H](C(=O)O)C(C)C; dNMeA = CN[C@H](C)C(=O)O
How the values were obtained:
Assay in all cases: NCI tumour cell line growth inhibition, 48 h
NCI-H226 = system: NCI-H226
SR = system: SR
RPMI-8226 = system: RPMI-8226
T47D = system: T47D
HCC 2998 = system: HCC 2998
BT-549 = system: BT-549
HT-29 = system: HT-29
SK-MEL-28 = system: SK-MEL-28
MDA-MB-231 = system: MDA-MB-231
CAKI-1 = system: CAKI-1
MDA-N = system: MDA-N
ACHN = system: ACHN
SK-MEL-5 = system: SK-MEL-5
UACC-257 = system: UACC-257
COLO 205 = system: COLO 205
SK-MEL-2 = system: SK-MEL-2
RXF 393 = system: RXF 393
SF-539 = system: SF-539
EKVX = system: EKVX

SMILES | GI50 (NCI-H226) | GI50 (SR) | GI50 (RPMI-8226) | GI50 (T47D) | GI50 (HCC 2998) | GI50 (BT-549) | GI50 (HT-29) | GI50 (SK-MEL-28) | GI50 (MDA-MB-231) | GI50 (CAKI-1) | GI50 (MDA-N) | GI50 (ACHN) | GI50 (SK-MEL-5) | GI50 (UACC-257) | GI50 (COLO 205) | GI50 (SK-MEL-2) | GI50 (RXF 393) | GI50 (SF-539) | GI50 (EKVX)
CN(C)CCN1C(=O)N(CCN(C)C)c2c3cc(O)ccc3nc3c([N+](=O)[O-])ccc1c23 | 12.6 µM (inactive) | 0.245 µM (active) | 14.2 µM (inactive) | 18.4 µM (inactive) | 8.73 µM (inactive) | 19.8 µM (inactive) | 6.08 µM (inactive) | 25.3 µM (inactive) | 10.5 µM (inactive) | 13.1 µM (inactive) | 13 µM (inactive) | 6.22 µM (inactive) | 13.7 µM (inactive) | 15.3 µM (inactive) | 10.4 µM (inactive) | 24.8 µM (inactive) |  |  | 
N[C@@H]1CCN(c2c(F)cc3c(=O)c(C(=O)O)cn4c3c2Oc2cc3c(ccc5ccccc53)cc2-4)C1 | 6.58 µM (inactive) | 0.659 µM (active) | 4.3 µM (inactive) | 4.56 µM (inactive) |  | 4.03 µM (inactive) | 0.585 µM (active) | > 21.1 µM (inactive) | 4.56 µM (inactive) | 6.27 µM (inactive) | 3.01 µM (inactive) | 1.54 µM (inactive) | 2.92 µM (inactive) | 0.78 µM (active) | 4.45 µM (inactive) | 5.18 µM (inactive) | 1.64 µM (inactive) | 3.37 µM (inactive) | 
C=CC1ON(Cc2ccccc2)CCc2cc(OC)c(OC)cc21 (centres undefined) | > 100 µM (inactive) | 25.7 µM (inactive) | 30.3 µM (inactive) | 27.7 µM (inactive) | 35.5 µM (inactive) | 28.1 µM (inactive) | 42.4 µM (inactive) | 36.9 µM (inactive) | 81.1 µM (inactive) | 70.5 µM (inactive) | 29 µM (inactive) | > 100 µM (inactive) | 16.1 µM (inactive) | 52.6 µM (inactive) | 41.6 µM (inactive) |  |  | 83.4 µM (inactive) | 63.4 µM (inactive)
CC1(O)CC(C(F)(F)F)(C(F)(F)F)OC1=O (centres undefined) | > 10 µM (inactive) | > 10 µM (inactive) | > 10 µM (inactive) | > 10 µM (inactive) | > 10 µM (inactive) | > 10 µM (inactive) | > 10 µM (inactive) | > 10 µM (inactive) | > 10 µM (inactive) | > 10 µM (inactive) | > 10 µM (inactive) | > 10 µM (inactive) | > 10 µM (inactive) | > 10 µM (inactive) | > 10 µM (inactive) |  |  | > 10 µM (inactive) | > 10 µM (inactive)
O=C1CC(NC(=O)C(F)(F)F)c2c(Br)sc(N3CCC(c4ccccc4)CC3)c21 (centres undefined) | 28.4 µM (inactive) |  |  | 4.45 µM (inactive) | > 100 µM (inactive) | 27.7 µM (inactive) | 56.5 µM (inactive) |  | 3.73 µM (inactive) | 12.9 µM (inactive) | 78.9 µM (inactive) | 28.1 µM (inactive) | 6.03 µM (inactive) | 13.4 µM (inactive) | > 100 µM (inactive) | 0.973 µM (active) | 17 µM (inactive) | 44.6 µM (inactive) | 43.9 µM (inactive)
Clc1ccc(-c2ccc(-c3nnc(COc4ccc(OCc5nnc(-c6ccc(-c7ccc(Cl)cc7Cl)o6)o5)c(Cl)c4)o3)o2)c(Cl)c1 | > 100 µM (inactive) | 28.8 µM (inactive) | > 100 µM (inactive) | > 100 µM (inactive) | > 100 µM (inactive) | > 100 µM (inactive) | > 100 µM (inactive) | > 100 µM (inactive) | > 100 µM (inactive) | > 100 µM (inactive) | > 100 µM (inactive) | > 100 µM (inactive) | > 100 µM (inactive) | > 100 µM (inactive) | > 100 µM (inactive) | 25.3 µM (inactive) | 16.2 µM (inactive) |  | > 100 µM (inactive)
COc1ccc(CNC(=O)[C@@H](C)N(C)C(=O)[C@@H]2CCCN2C(=O)[C@H](C(C)C)N(C)C(=O)[C@@H](NC(=O)[C@H](C(C)C)N(Cc2ccccc2)Cc2ccccc2)C(C)C)cc1OC (Bn2Val-V[NMeV]P[dNMeA]-{NH(3,4-diMeO-benzyl)}) | 6.58 µM (inactive) |  | 2.66 µM (inactive) | 7.43 µM (inactive) | 7.1 µM (inactive) | 7.69 µM (inactive) | 5.4 µM (inactive) | 8.34 µM (inactive) | 8.15 µM (inactive) | 11.4 µM (inactive) | 9.06 µM (inactive) | 6.97 µM (inactive) | 5.87 µM (inactive) | 7.43 µM (inactive) | 6.55 µM (inactive) | 7.4 µM (inactive) | 5.61 µM (inactive) | 7.89 µM (inactive) | 6.24 µM (inactive)
CCc1cc(O)c(Cl)c(C)c1Cl |  |  | 13.8 µM (inactive) | 28.7 µM (inactive) | 15.2 µM (inactive) | 17.5 µM (inactive) | 19.2 µM (inactive) | 19.5 µM (inactive) | 27 µM (inactive) | 17.3 µM (inactive) | 16.3 µM (inactive) | 15.7 µM (inactive) | 17.5 µM (inactive) | 17.2 µM (inactive) | 21.4 µM (inactive) | 43.3 µM (inactive) | 14.1 µM (inactive) | 18.2 µM (inactive) | 11.9 µM (inactive)
COC(=O)C(/C(=N/NC(=O)c1ccncc1)C(=O)Nc1ccccc1OC)c1nc2ccc(Cl)cc2nc1O (centres undefined) | 22.2 µM (inactive) | 0.78 µM (active) | 75.5 µM (inactive) | > 100 µM (inactive) |  | > 100 µM (inactive) | > 100 µM (inactive) | > 100 µM (inactive) | > 100 µM (inactive) | > 100 µM (inactive) | 47.2 µM (inactive) | > 100 µM (inactive) | > 100 µM (inactive) | > 100 µM (inactive) |  | > 100 µM (inactive) | > 100 µM (inactive) | > 100 µM (inactive) | 77.8 µM (inactive)
C#CCCCCC#Cc1ccccc1C(=O)C=[N+]=[N-] | > 100 µM (inactive) |  | 16.5 µM (inactive) | > 100 µM (inactive) | > 100 µM (inactive) | > 100 µM (inactive) | > 100 µM (inactive) | > 100 µM (inactive) | > 100 µM (inactive) | > 100 µM (inactive) | > 100 µM (inactive) | > 100 µM (inactive) | > 100 µM (inactive) | > 100 µM (inactive) | > 100 µM (inactive) | > 100 µM (inactive) | > 100 µM (inactive) | > 100 µM (inactive) | > 100 µM (inactive)
CC[C@@H]1/C=C/C=C/C[C@H](C)[C@@H](O)[C@](C)(O)C(=O)[C@H](C)[C@@H](O)[C@H](C)C(=O)[C@H](C)[C@@H](O)[C@H](C)/C=C/C(=O)O[C@H]2[C@@H](C)[C@@H](CC1)O[C@@]1(CC[C@@H](C)[C@@H](CC(C)O)O1)[C@@H]2C (some centres undefined) |  | 2 µM (inactive) | < 0.0162 µM (active) | < 0.01 µM (active) | 1.52 µM (inactive) | 1.52 µM (inactive) | 1.36 µM (inactive) | 6.5 µM (inactive) | 1.83 µM (inactive) | 1.73 µM (inactive) | 1.61 µM (inactive) | 1.35 µM (inactive) | < 0.01 µM (active) | < 0.01 µM (active) | < 0.01 µM (active) | 2.13 µM (inactive) | 1.68 µM (inactive) | 3.58 µM (inactive) | < 0.01 µM (active)
c1ccc(C2=NN=C3C(c4ccccc4)=Nc4ccccc4N3C2)cc1 | 14.9 µM (inactive) |  | 9.42 µM (inactive) | 36.7 µM (inactive) | 22.4 µM (inactive) | 32.4 µM (inactive) | 23.3 µM (inactive) | 34.7 µM (inactive) | 38.9 µM (inactive) | 43.7 µM (inactive) | 31.3 µM (inactive) | 34.4 µM (inactive) | 14.1 µM (inactive) | 7.55 µM (inactive) | 20.5 µM (inactive) | 23.5 µM (inactive) | 10.1 µM (inactive) | 39.5 µM (inactive) | 23.6 µM (inactive)
CN(C)CC(O)CNC(=O)Nc1ccccc1 (centres undefined) | > 100 µM (inactive) |  | > 100 µM (inactive) | > 100 µM (inactive) | > 100 µM (inactive) | > 100 µM (inactive) | > 100 µM (inactive) | > 100 µM (inactive) | > 100 µM (inactive) | > 100 µM (inactive) | > 100 µM (inactive) | > 100 µM (inactive) | > 100 µM (inactive) | > 100 µM (inactive) | > 100 µM (inactive) | > 100 µM (inactive) | > 100 µM (inactive) | > 100 µM (inactive) | > 100 µM (inactive)
CC12CCC(C1)C(C)(C)C2OC(=O)c1ccccc1C(=O)O (centres undefined) | > 100 µM (inactive) |  | > 100 µM (inactive) | > 100 µM (inactive) | > 100 µM (inactive) | > 100 µM (inactive) | > 100 µM (inactive) | > 100 µM (inactive) | > 100 µM (inactive) | > 100 µM (inactive) | > 100 µM (inactive) | > 100 µM (inactive) | > 100 µM (inactive) | > 100 µM (inactive) | > 100 µM (inactive) | > 100 µM (inactive) | > 100 µM (inactive) |  | > 100 µM (inactive)
CC(CNC(=O)c1ccccc1)(CNC(=O)c1ccccc1)[N+](=O)[O-] | > 100 µM (inactive) | > 100 µM (inactive) | > 100 µM (inactive) | > 100 µM (inactive) |  | > 100 µM (inactive) | > 100 µM (inactive) |  | > 100 µM (inactive) | > 100 µM (inactive) | > 100 µM (inactive) | > 100 µM (inactive) | > 100 µM (inactive) | > 100 µM (inactive) | > 100 µM (inactive) | > 100 µM (inactive) | > 100 µM (inactive) | > 100 µM (inactive) | > 100 µM (inactive)
